# How the values were obtained:
# HUV-EC-C cells (VEGF) = assay: HUV-EC-C assay, VEGF-stimulated 3H-thymidine incorporation (HUVEC-VEGF); assay type: cell-based; settings: Homo sapiens; Table 1
# Experimental: (§1) The following protocol may also be used to measure a compound's activity against PDGF-R, FGF-R, VEGF, aFGF or Flk-1/KDR, all of which are naturally expressed by HUV-EC cells.
# (§2) 1. […] After cells have detached from the flask, add an equal volume of assay medium and transfer to a 50 ml sterile centrifuge tube (Fisher Scientific, catalogue no. 05-539-6).
# (§3) 2. Wash the cells with about 35 ml assay medium in the 50 ml sterile centrifuge tube by adding the assay medium, centrifuge for 10 minutes at approximately 200x g, aspirate the supernatant, and resuspend with 35 ml D-PBS. Repeat the wash two more times with D-PBS, resuspend the cells in about 1 ml assay medium/is cm^2 of tissue culture flask. Assay medium consists of F12K medium (Gibco BRL, catalogue no. 21127-014) and 0.5% heat-inactivated fetal bovine serum. Count the cells with a Coulter Counter® (Coulter Electronics, Inc.) and add assay medium to the cells to obtain a concentration of 0.8-1.0×10^5 cells/ml.
# (§4) 3. Add cells to 96-well flat-bottom plates at 100 μl/well or 0.8-1.0×10^4 cells/well, incubate −24h at 37° C., 5% CO2.
# (§5) 1. Make up two-fold test compound titrations in separate 96-well plates, generally 50 μM on down to 0 μM. Use the same assay medium as mentioned in day 0, step 2 above. Titrations are made by adding […] of test compound at 200 μM (4X the final well concentration) to the top well of a particular plate column. Since the stock test compound is usually 20 mM in DMSO, the 200 μM drug concentration contains 2% DMSO.
# (§6) A diluent made up to 2% DMSO in assay medium (F12K+0.5% fetal bovine serum) is used as diluent for the test compound titrations in order to dilute the test compound but keep the DMSO concentration constant. Add this diluent to the remaining wells in the column at 60 μl/well. Take 60 μl from the 120 μl of 200 μM test compound dilution in the top well of the column and mix with the 60 μl in the second well of the column. Take 60 μl from this well and mix with the 60 μl in the third well of the column, and so on until two-fold titrations are completed. When the next-to-the-last well is mixed, take 60 μl of the 120 μl in this well and discard it. Leave the last well with 60 μl of DMSO/media diluent as a non-test compound-containing control. Make 9 columns of titrated test compound, enough for triplicate wells each for: (1) VEGF (obtained from Pepro Tech Inc., catalogue no. 100-200, (2) endothelial cell growth factor (ECGF) (also known as acidic fibroblast growth factor, or aFGF) (obtained from Boehringer Mannheim Biochemica, catalogue no. 1439 600), or, (3) human PDGF B/B (1276-956, Boehringer Mannheim, Germany) and assay media control. ECGF comes as a preparation with sodium heparin.
# (§7) 2. Transfer 50 μl/well of the test compound dilutions to the 96-well assay plates containing the 0.8-1.0×10^4 cells/100 μl/well of the HUV-EC-C cells from day 0 and incubate […] at 37° C., 5% CO2.
# (§8) 3. In triplicate, add 50 μl well of […] VEGF, 20 ng/ml ECGF, or media control to each test compound condition. As with the test compounds, the growth factor concentrations are 4X the desired final concentration. Use the assay media from day 0 step 2 to make the concentrations of growth factors. Incubate approximately 24 hours at 37° C., 5% CO2. Each well will have 50 μl test compound dilution, 50 μl growth factor or media, and 100 μl cells, which calculates to 200 μl/well total. Thus the 4X concentrations of test compound and growth factors become 1X once everything has been added to the wells.
# (§9) 1. Add ^3H-thymidine (Amersham, catalogue no. TRK-686) at 1 μCi/well (10 μl/well of 100 μCi/ml solution made up in RPMI media +10% heat-inactivated fetal bovine serum) and incubate ˜24 h at 37° C., 5% CO2. RPMI is obtained from Gibco BRL, catalogue no. 11875-051.
# (§10) 1. Freeze plates overnight at −20° C. […]
# HUV-EC-C cells (aFGF) = assay: HUV-EC-C assay, aFGF (ECGF)-stimulated 3H-thymidine incorporation (HUVEC-aFGF); assay type: cell-based; settings: Homo sapiens; Table 1
# Experimental: as §1, §2, §3, §4, §5, §6, §7, §8, §9, §10
IC50 (HUV-EC-C cells (VEGF)),SMILES,IC50 (HUV-EC-C cells (aFGF))
380 nM,"Cc1c(CCC(=O)O)c[nH]c1/C=C1\C(=O)Nc2ccc(Cl)cc21 [Example 1, 3-[5-(5-Chloro-2-oxo-1,2-dihydroindol-3-ylidenemethyl)-4-methyl-1H-pyrrol-3-yl]-propionic acid]",21400 nM
130 nM,"Cc1ccc2c(c1)/C(=C/c1[nH]c(C)c(CCC(=O)O)c1C)C(=O)N2 [Example 22, 3-[2,4-Dimethyl-5-(5-methyl-2-oxo-1,2-dihydroindol-3-ylidenemethyl)-1H-pyrrol-3-yl]-propionic acid]",15800 nM
1340 nM,"Cc1c(CCC(=O)O)c[nH]c1/C=C1\C(=O)Nc2ccc(I)cc21 [Example 7, 3-[5-(5-Iodo-2-oxo-1,2-dihydroindol-3-ylidenemethyl)-4-methyl-1H-pyrrol-3-yl]-propionic acid]",12300 nM
1200 nM,"CCc1ccc2c(c1)/C(=C/c1[nH]cc(CCC(=O)O)c1C)C(=O)N2 [Example 17, 3-[5-(5-Ethyl-2-oxo-1,2-dihydro-indol-3-ylidenemethyl)-4-methyl-1H-pyrrol-3-yl]-propionic acid]",20000 nM
1600 nM,"COc1ccc2c(c1)NC(=O)/C2=C\c1[nH]cc(CCC(=O)O)c1C [Example 2, 3-[5-(6-Methoxy-2-oxo-1,2-dihydroindol-3-ylidenemethyl)-4-methyl-1H-pyrrol-3-yl]-propionic acid]",31600 nM
90 nM,"CCOc1cccc(-c2ccc3c(c2)NC(=O)/C3=C\c2[nH]cc(CCC(=O)O)c2C)c1 [Example 31, 3-{5-[6-(3-Ethoxy-phenyl)-2-oxo-1,2-dihydroindol-3-ylidenemethyl]-4-methyl-1H-pyrrol-3-yl}-propionic acid]",180 nM
2400 nM,"COc1ccc2c(c1)/C(=C/c1[nH]cc(CCC(=O)O)c1C)C(=O)N2 [Example 18, 3-[5-(5-Methoxy-2-oxo-1,2-dihydroindol-3-ylidenemethyl)-4-methyl-1H-pyrrol-3-yl]-propionic acid]",18400 nM
3000 nM,"Cc1[nH]c(/C=C2\C(=O)Nc3cc(O)ccc32)c(C)c1CCC(=O)O [Example 23, 3-[5-(6-Hydroxy-2-oxo-1,2-dihydroindol-3-ylidenemethyl)-2,4-dimethyl-1H-pyrrol-3-yl]-propionic acid]",1100 nM
10600 nM,"COc1cc2c(cc1OC)/C(=C/c1[nH]cc(CCC(=O)O)c1C)C(=O)N2 [Example 10, 3-[5-(5,6-Dimethoxy-2-oxo-1,2-dihydroindol-3-ylidenemethyl)-4-methyl-1H-pyrrol-3-yl]-propionic acid]",> 50000 nM
290 nM,"Cc1[nH]c(/C=C2\C(=O)Nc3ccc(I)cc32)c(C)c1CCC(=O)O [Example 20, 3-[5-(5-Iodo-2-oxo-1,2-dihydroindol-3-ylidenemethyl)-2,4-dimethyl-1H-pyrrol-3-yl]-propionic acid]",5000 nM
4000 nM,"Cc1cccc2c1/C(=C/c1[nH]c(C)c(CCC(=O)O)c1C)C(=O)N2 [Example 21, 3-[2,4-Dimethyl-5-(4-methyl-2-oxo-1,2-dihydroindol-3-ylidene-methyl)-1H-pyrrol-3-yl]-propionic acid]",5600 nM
330 nM,"Cc1ccc2c(c1)/C(=C/c1[nH]cc(CCC(=O)O)c1C)C(=O)N2 [Example 9, 3-[4-Methyl-5-(5-methyl-2-oxo-1,2-dihydroindol-3-ylidenemethyl)-1H-pyrrol-3-yl]-propionic acid]",13400 nM
110 nM,"Cc1c(CCC(=O)O)c[nH]c1/C=C1\C(=O)Nc2ccccc21 [Example 4, 3-[4-Methyl-5-(2-oxo-l,2-dihydroindol-3-ylidenemethyl)-1H-pyrrol-3-yl]-propionic acid]",7100 nM
70 nM,"Cc1[nH]c(/C=C2\C(=O)Nc3ccc(Br)cc32)c(C)c1CCC(=O)O [Example 19, 3-[5-(5-Bromo-2-oxo-1,2-dihydroindol-3-ylidenemethyl)-2,4-dimethyl-1H-pyrrol-3-yl]-propionic acid]",3600 nM
1400 nM,"Cc1c(CCC(=O)O)c[nH]c1/C=C1\C(=O)Nc2cc(Cl)ccc21 [Example 11, 3-[5-(6-Chloro-2-oxo-1,2-dihydroindol-3-ylidenemethyl)-4-methyl-1H-pyrrol-3-yl]-propionic acid]",9600 nM
11000 nM,"COC(=O)c1ccc2c(c1)/C(=C/c1[nH]cc(CCC(=O)O)c1C)C(=O)N2 [Example 12, 3-[4-(2-Carboxyethyl)-3-methyl-1H-pyrrol-2-ylmethylene]-2-oxo-2,3-dihydro-1H-indole-5-carboxylic acid methyl ester]",24600 nM
810 nM,"Cc1c(CCC(=O)O)c[nH]c1/C=C1\C(=O)Nc2cc(-c3ccccc3)ccc21 [Example 33, 3-[4-Methyl-5-(2-oxo-6-phenyl-1,2-dihydro-indol3-ylidenemethyl)-1H-pyrrol-3-yl]-propionic acid]",1000 nM
150 nM,"Cc1c(CCC(=O)O)c[nH]c1/C=C1\C(=O)Nc2cc(Br)ccc21 [Example 28, 3-[5-(6-Bromo-2-oxo-1,2-dihydroindol-3-ylidenemethyl)-4-methyl-1H-pyrrol-3-yl]-propionic acid]",1900 nM
50 nM,"Cc1[nH]c(/C=C2\C(=O)Nc3ccc(Cl)cc32)c(C)c1CCC(=O)O [Example 3, 3-[5-(5-Chloro-2-oxo-1,2-dihydroindol-3-ylidenemethyl)-2,4-dimethyl-1H-pyrrol-3-yl]-propionic acid]",2800 nM
250 nM,"CCOc1cccc(-c2ccc3c(c2)NC(=O)/C3=C\c2[nH]c(C)c(CCC(=O)O)c2C)c1 [Example 30, 3-(5-[6-(3-Ethoxy-phenyl)-2-oxo-1,2-dihydroindol-3-ylidenemethyl]-2,4-dimethyl-1H-pyrrol-3-yl)-propionic acid]",640 nM
740 nM,"Cc1cccc2c1/C(=C/c1[nH]cc(CCC(=O)O)c1C)C(=O)N2 [Example 8, 3-[4-Methyl-5-(4-methyl-2-oxo-1,2-dihydroindol-3-ylidenemethyl)-1H-pyrrol-3-yl]-propionic acid]",4520 nM
670 nM,"COc1ccc2c(c1)NC(=O)/C2=C\c1[nH]c(C)c(CCC(=O)O)c1C [Example 24, 3-[5-(6-Methoxy-2-oxo-1,2-dihydroindol-3-ylidenemethyl)-2,4-dimethyl-1H-pyrrol-3-yl]-propionic acid]",25100 nM
180 nM,"COc1cccc(-c2ccc3c(c2)NC(=O)/C3=C\c2[nH]cc(CCC(=O)O)c2C)c1 [Example 29, 3-{5-[6-(3-Methoxy-phenyl)-2-oxo-1,2-dihydroindol-3-ylidenemethyl]-4-methyl-1N-pyrrol-3-yl}-propionic acid]",130 nM
990 nM,"COc1cccc(-c2ccc3c(c2)NC(=O)/C3=C\c2[nH]c(C)c(CCC(=O)O)c2C)c1 [Example 27, 3-{5-[6-(3-Methoxy-phenyl)-2-oxo-1,2-dihydroindol-3-ylidenemethyl]-2,4-dimethyl-1H-pyrrol-3-yl}-propionic acid]",1500 nM
630 nM,"Cc1c(CCC(=O)O)c[nH]c1/C=C1\C(=O)Nc2ccc(Br)cc21 [Example 6, 3-[5-(5-Bromo-2-oxo-1,2-dihydroindol-3-ylidenemethyl)-4-methyl-1H-pyrrol-3-yl]-propionic acid]",18400 nM
